Earlier results as cited in patent US20220370615A1, “Prevention of Illicit Manufacture of Methamphetamine from Pseudoephedrine Using Food Flavor Excipients” (Satara Pharmaceuticals, priority 2021, published 2022).

Conditions: species and route not given

Which LD50 does the source give for `CC(=O)c1cnccn1` [Acetylpyrazine] here?
The LD50 was greater than 4000 mg/kg.
